Experimental data from patent EP3327020A1, “CITRATE SALTS OF A JANUS KINASE (JAK) INHIBITOR” (SANDOZ AG, priority 2016, dated 2018).
≈ marks a conversion by molar mass, not a printed value. Entries after “also recorded” stand apart in the source; their conditions may differ.

Assay: Solubility in 0.1N aqueous HCl (saturated solution stirred at 37 °C for 1 hour, filtered, baricitinib concentration of the mother liquor determined by HPLC)
Assay type: physicochemical
Details: for solubility at 1 h: simulated gastric fluid, thermodynamic from solid, read-out: Solubility in 0.1N aqueous HCl after 1 hour
Procedure: The solubilities of baricitinib free base, phosphate, trifluoroacetate, monocitrate and dicitrate in 0.1N HCl have been determined. […] Thereafter, the solid was removed by filtration and the baricitinib concentration of the mother liquor was determined by HPLC.
The absolute solubility values were calculated from a calibration curve generated with solutions of known baricitinib concentrations and are listed in Table 5. Table 5: Comparative solubility data in 0.1N aqueous hydrochloric acid

[1] = 0.1N aqueous HCl, 37 °C, 1 hour, baricitinib concentration by HPLC

SMILES	solubility relative to the solubility of baricitinib free base (0.1N aqueous hydrochloric acid)	solubility at 1 h [1] [mg/mL]	Solubility in 0.1N aqueous HCl after 1 hour [1] [mg/mL]	solubility compared to the free base form (in words) (0.1N aqueous hydrochloric acid, listed as phosphate salt of baricitinib)
CCS(=O)(=O)N1CC(CC#N)(n2cc(-c3ncnc4[nH]ccc34)cn2)C1.O=C(O)CC(O)(CC(=O)O)C(=O)O.O=C(O)CC(O)(CC(=O)O)C(=O)O [{1-(Ethylsulfonyl)-3-[4-(7H-pyrrolo[2,3-d]pyrimidin-4-yl)-1H-pyrazol-1-yl]azetidin-3-yl}acetonitrile dicitrate]	more than 2 fold	> 50	–	–
CCS(=O)(=O)N1CC(CC#N)(n2cc(-c3ncnc4[nH]ccc34)cn2)C1 [{1-(Ethylsulfonyl)-3-[4-(7H-pyrrolo[2,3-d]pyrimidin-4-yl)-1H-pyrazol-1-yl]azetidin-3-yl}acetonitrile]	–	25 (≈ 67.3 mM)	–	–
CCS(=O)(=O)N1CC(CC#N)(n2cc(-c3ncnc4[nH]ccc34)cn2)C1.O=P(O)(O)O [Phosphate salt of WO 2009/114512 A1]	–	–	26	only a slightly increased solubility; also recorded: only slightly improved solubility values
CCS(=O)(=O)N1CC(CC#N)(n2cc(-c3ncnc4[nH]ccc34)cn2)C1.O=C(O)CC(O)(CC(=O)O)C(=O)O [{1-(Ethylsulfonyl)-3-[4-(7H-pyrrolo[2,3-d]pyrimidin-4-yl)-1H-pyrazol-1-yl]azetidin-3-yl}acetonitrile monocitrate]	more than 2 fold	> 50	–	–
